Data on four molecules can be found in ChEMBL document CHEMBL6071182, “Design, Biological Characterization, and Discovery of Novel Cyclohexenyl Derivatives as Kinesin KIF18A Inhibitors for the Treatment of Ovarian Cancer” (ACS Med Chem Lett, 2024).

Series [1] deals with NCI-N87. Nature of the series: Antiproliferative activity against human NCI-N87 cells assessed as chemiluminescence measured after 4 days incubation by Celltiter Glo assay. Conditions: NCI-N87, 96 h; call rule not given here.
Series [2] has as its system BXPC-3. Nature of the series: Antiproliferative activity against human BxPC-3 cells assessed as chemiluminescence measured after 4 days incubation by Celltiter Glo assay. Conditions: BXPC-3, 96 h.
Series [3] in a line: cells. Conditions: Homo sapiens, OVCAR-3, 96 h.
Description: Antiproliferative activity against KIF18A siRNA sensitive human OVCAR-3 cells assessed as decrease in nuclei number measured after 4 days incubation by Hoechst 33342 DNA dye based nuclear count assay (NCA)
Series [4] deals with NUGC-3. Nature of the series: Antiproliferative activity against human NUGC-3 cells assessed as chemiluminescence measured after 4 days incubation by Celltiter Glo assay. To be noted: NUGC-3, 96 h. Background: Cellular ATP, detected with luciferase, serves as a proxy for viable cell number.
Series [5] can be described thus: AUC in Balb/c mouse at 30 mg/kg, po. To be noted: in vivo. The format is ADME, organism-based.
Series [6] in a line: Half life in Balb/c mouse at 30 mg/kg, po. To be noted: in vivo. The format is ADME, organism-based.
Series [7] can be described thus: Cmax in Balb/c mouse at 30 mg/kg, po. The format is ADME, organism-based. To be noted: in vivo.
For series [8], the target named is T1, Kinesin-like protein KIF18A (Homo sapiens, UniProt Q8NI77).
T1 sequence (Q8NI77 whole entry): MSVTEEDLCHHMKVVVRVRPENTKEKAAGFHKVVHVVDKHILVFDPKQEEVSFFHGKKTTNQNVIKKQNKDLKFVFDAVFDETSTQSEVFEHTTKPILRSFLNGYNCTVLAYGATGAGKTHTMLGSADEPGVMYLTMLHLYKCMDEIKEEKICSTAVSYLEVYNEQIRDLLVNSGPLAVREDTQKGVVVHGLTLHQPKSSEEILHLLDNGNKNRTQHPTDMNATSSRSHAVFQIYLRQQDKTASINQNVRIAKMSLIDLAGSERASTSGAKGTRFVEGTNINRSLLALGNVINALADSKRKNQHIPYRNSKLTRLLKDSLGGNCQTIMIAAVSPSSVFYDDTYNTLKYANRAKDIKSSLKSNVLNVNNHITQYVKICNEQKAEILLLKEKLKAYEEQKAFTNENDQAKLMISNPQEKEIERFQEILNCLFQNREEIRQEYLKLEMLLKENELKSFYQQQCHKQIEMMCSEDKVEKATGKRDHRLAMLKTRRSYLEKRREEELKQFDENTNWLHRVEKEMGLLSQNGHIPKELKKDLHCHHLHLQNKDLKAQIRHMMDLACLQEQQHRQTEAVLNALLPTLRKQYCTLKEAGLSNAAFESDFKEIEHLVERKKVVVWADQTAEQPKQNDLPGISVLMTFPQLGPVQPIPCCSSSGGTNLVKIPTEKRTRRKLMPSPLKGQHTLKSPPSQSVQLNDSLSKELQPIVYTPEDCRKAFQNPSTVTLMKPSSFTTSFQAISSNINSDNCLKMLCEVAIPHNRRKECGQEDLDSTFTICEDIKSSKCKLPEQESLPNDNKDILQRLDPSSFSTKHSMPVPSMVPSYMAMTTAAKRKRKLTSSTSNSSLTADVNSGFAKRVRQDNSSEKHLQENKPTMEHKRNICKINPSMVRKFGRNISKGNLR
As to the kind of experiment: Inhibition of human recombinant KIF18A (1 to 436) by ADP-Glo motor assay. (In ADP-Glo the light output rises with the ADP produced.)

Series [9] has as its target T1, Kinesin-like protein KIF18A. As to the kind of experiment: Inhibition of human recombinant KIF18A (1 to 374) assessed as luminescence measured after 70 mins by ADP-Glo motor assay.

As for `Cc1cc(NC(=O)c2ccc(NS(=O)(=O)CCO)cc2N2CCC3(CC2)CC3)nc(N2CCC(F)(F)CC2)n1` [AMG-650], the IC50 came to 7490 nM in series [1], 7450 nM in series [2] and 111 nM in [4]. In series [3], this molecule came in with an EC50 of 72.7 nM. Further, the AUC in series [5] was 110 µg·h/mL. This molecule also had a half-life in series [6] of 7.98 h. Further, the Cmax in series [7] stood at 7040 ng/mL.

On to `C[C@H]1CN(c2cccc(NC(=O)c3ccc(NS(=O)(=O)CCO)cc3N3CCC4(CC3)CC4)n2)CCO1`, for which the half-inhibitory concentration (IC50) in [8] was 62 nM.

`Cc1cc(NC(=O)c2ccc(NS(=O)(=O)[C@H](C)CO)cc2N2CCC3(CC2)CC3)nc(N2CCC(F)(F)CC2)n1`: the IC50 in series [8] stood at 71 nM.

`Cc1cc(NC(=O)c2ccc(NS(=O)(=O)CCO)cc2C2=CCC3(CC2)CC3)cc(N2CCC(F)(F)CC2)c1` gave an EC50 in [3] of 308 nM. Further, the IC50 entry in series [9] is “Not Active”.

By IC50 is commonly meant the concentration that gives 50% inhibition. A word on the EC50: it is the concentration at which the effect is half-maximal. Read a low EC50 as higher potency in that assay. What is called AUC is concentration integrated over time. In general, half-life refers to how long it takes for the measured level to halve. High values mean slow loss, low ones fast loss. The term Cmax denotes the highest concentration seen after dosing.
